Measured values: patent publication US20050038103A1, “Uses of dorzolamide” (priority 2003, published 2005)

Key:
[1] = Night vision of patients being treated for glaucoma; assay type: in vivo, human
[2] = Sponsel et al., 1997; Harris et al., 1999; cited from earlier work
[3] = cited from earlier work
[4] = Visual fields in a patient with retinitis pigmentosa; conditions: for improvement in visual field: gtts (i) ou bid
[5] = Visual acuity (Snellen's chart) in patients with age-related macular degeneration; conditions: AMD patients

In the case of `CCN[C@H]1C[C@H](C)S(=O)(=O)c2sc(S(N)(=O)=O)cc21` [dorzolamide], the night vision [1] is given as “improved the night vision”, the contrast sensitivity [2] is given as “enhance contrast sensitivity” and the perimetric light sensitivity [2] is given as “increase perimetric light sensitivity”. The “capillary dye transit in macula and optic nerve head” value ([3]; Harris et al., 1996) was “enhance capillary dye transit in macula and optic nerve head”, the retinal arteriovenous passage ([3]; Harris et al., 1999, 1996, 2001) was “accelerate retinal arteriovenous passage” and the “increase of ocular pulse amplitude” value ([3]; Schmidt et al., 1998) was 18-19%. The safety ([4]; gtts (i) bid) was “very safe”, the “improvement in visual field” value ([4]; five weeks) was “marked improvement in visual field in the left eye” and the “improvement in visual field” value ([4]; nine weeks) was “still more marked improvement in both eyes”. The safety ([5]; gtts (i) bid) was “very safe” and the “improvement in visual acuity (one more line on Snellen's chart)” value ([5]; gtts (i) bid in one eye, one month) was “Most patients demonstrated objective (and subjective) improvement in visual acuity in one month”.
